Measurements reported in patent publication US12691151B2, “Methods and compositions for improving oncolytic virus infection for nonpermissive cancers” (Arizona Board of Regents on behalf of Arizona State …, priority 2019, dated 2026).
“Also recorded” adds a separate entry of the source.

Tested on: HT29 cells
Format: cell-based, human

CCC(=C/[C@H](C)C/C=C/C(C)=C/[C@@H](C)C(=O)[C@@H](C)[C@H](O)[C@@H](C)C/C(C)=C/C(=O)O)/C=C/[C@@H]1OC(=O)C=C[C@@H]1C [Leptomycin B]
cell killing ability of MYXV: further enhanced the cell killing ability of MYXV | cell viability (ATP), Leptomycin B pretreatment plus MYXV: further reduced the viability; also recorded: reduced cell viability | cell viability (ATP) (64 h): sensitive to Leptomycin B treatment alone
